In patent US9163063B2, “Peptides and nanoparticles for therapeutic and diagnostic applications” (Trustees of Dartmouth College, priority 2009, dated 2015):
Ends that are not written are not given here. Peptide text beside a SMILES is read from it. * marks the point of attachment. fluorescein = fluorescein group attached to the lysine side chain; Benzoyl(4-Br) = O=C(c1ccc(Br)cc1)*; Myristoyl = CCCCCCCCCCCCCC(=O)*; Bz = O=C(c1ccccc1)*

Legend:
AsPC1 cells [1] = test: Cellular localization of fluorescein-tagged analogs (confocal); type: cell-based, human
Text: Furthermore, the cellular localization of both CR1023 and CR1166 was investigated in AsPC1 cells using their fluorescein-tagged analogs CR1171 and CR1173 (FIG. 24). CR1172, the fluorescein-tagged analog of CR1164 was used as a control. The green (for fluorescein) and blue (for DAPI) fluorescent microscopy images were collected for AsPC1 cells treated with peptides CR1171, CR1172 and CR1173 using a LSM 510 confocal laser scan microscope. The presence of green fluorescence in FIGS. 24d, -g, -j indicated the internalization of CR1171, CR1172 and CR1173. Untreated AsPC1 cells were devoid of the green fluorescent signal.

AsPC1 cells [2] = type: cell-based, human; details: 50-200 μM, 48 h-96 h (Example 6)
Description: (§1) MDA231-W and AsPC1 cells were cultured in RPMI 1640 media supplemented with 10% fetal bovine serum (FBS), 5% L-Glutamine, and 1% antibiotics (penicillin-streptomycin purchased from Invitrogen, Carlsbad, Calif.). Cells were maintained at 37° C. in an atmosphere containing 95% air-5% CO2 (v/v). Cells were then incubated with different doses of GIPC inhibitor peptides (50-200 μM) for different time (48 h to 96 h). MDA-231 WT (4×10^4) and AsPC1 cells (2×10^4) were seeded in 24-well plates, cultured for 1 d in RPMI 1640 medium supplemented with 10% FBS, 5% L-Glutamine, and 1% antibiotics. Cells were then incubated with GIPC inhibitor peptides in a time dependent (48 h-96 h) and dose dependent manner (50-200 μM). After certain time of incubation, 1 μCi [^3H]-thymidine was added and proliferation assay performed as previously described. Experiments were repeated at least thrice and in triplicate.

[3] = tested on: MDA-MB-231-WT breast cancer cells; type: cell-based; details: 50-200 μM, 48 h-96 h (Example 6)
Description: as §1

AsPC1 cells [4] = test: Apoptosis assay (annexin/PI); type: cell-based, human; details: 50-200 μM
Description: (§2) MDA231-WT and AsPC1 ells were seeded into 6-well plates at a density of 4×10^5/2 ml of RPMI medium per well and grown overnight. Next day cells were treated with GIPC inhibitor peptides in a time dependent (48 h-96 h) and dose dependent manner (50-200 μM). After treatment with definite time, cells were extensively washed with PBS and tested with the Annexin V-FITC Apoptosis Detection Kit (Biovision, Cat. No. #K101-100) per the manufacturer's instructions.

MDA-MB-231-WT cells = test: Apoptosis assay (annexin/PI); type: cell-based; details: 50-200 μM
Description: as §2

[5] = tested on: MIAPaCa2 pancreatic cancer cells; test: Subcutaneous MIAPaCa2 tumor, intratumoral peptide for 27 days; type: in vivo, nude mice; details: whole course of treatment
Description: When the tumor reached about 5 mm-15 mm in diameter after subcutaneous transplantation of MIAPaCa2 cells (n=10 treatment, n=10 control) into the mouse right flank, mice were treated with 10 mM of peptide for 27 days dissolved in DMSO. The peptide was applied directly into the tumor. The control group was treated with phosphate buffered saline solution alone.
HE staining and immunostaining for Ki67 (n=6 treatment, n=7 control) was performed as described by the manufacturer. For evaluation the Zeiss Axioplan 2 microscope was used. Photos are made with Zeiss Axiocam. For photos 40× objectives were used. Statistical Analysis. Data are presented as means and differences in means with 95% confidence intervals for the differences. Tests for statistical differences were performed using t-tests and Mann-Whitney tests and Wilcoxon tests. For the in vivo experiments, at least 10 mice were used each group. This number was derived by power analysis to detect a 50% reduction in tumor size, with a beta error of 3%. Because the overall sample size was small and outcome variables could have a non-normal distribution, the non-parametric Mann-Whitney test was used to detect statistical significant differences in each group. P values less than 0.05 were considered to be significant. The significance of the tumor take rates was calculated by using a Wilcoxon-test. […]

| Compound | cellular localization (AsPC1 cells [1]) | internalization (green fluorescence) (AsPC1 cells [1]) | inhibition of cell proliferation (AsPC1 cells [2]) | inhibition of cell proliferation [3] | induction of apoptosis (AsPC1 cells [4]) | induction of apoptosis (MDA-MB-231-WT cells) | toxicity during treatment ([5]; listed as GIPC-PDZ-targeting peptide) | toxicity during treatment ([5]; listed as PDZ domain inhibitor) |
| --- | --- | --- | --- | --- | --- | --- | --- | --- |
| My-K(FI)PSQSK(ben)SK(ben)A (Myristoyl-K(fluorescein)PSQSK(Bz)SK(Bz)A) [CR1172] | more dispersely localized | internalization | – | – | – | – | – | – |
| My-SPSASK(4-Br-ben)SQ (Myristoyl-SPSASK(Benzoyl(4-Br))SQ) [CR2059] | – | – | very little effect | very little effect | no effect | no effect | – | – |
| CCCCCCCCCCCCCC(=O)N1CCC[C@H]1C(=O)N[C@@H](CO)C(=O)N[C@@H](CCC(N)=O)C(=O)N[C@@H](CO)C(=O)N[C@@H](CO)C(=O)N[C@@H](CO)C(=O)N[C@@H](CCC(=O)O)C(=O)N[C@@H](C)C(=O)O [PSQSSSEA, P-S-Q-S-S-S-E-A] (Myristoyl-PSQSSSEA-OH) | – | – | – | – | – | – | without showing toxicity | did not show any toxicity |
| My-SESPSASQ (Myristoyl-SESPSASQ) [CR2055] | – | – | no effect | no effect | no effect | no effect | – | – |
| My-LLQGPSQSSSEA (Myristoyl-LLQGPSQSSSEA) [SEQ ID NO: 22] | – | – | significant inhibitions | significant inhibitions | significant induction of apoptosis | significant induction of apoptosis | – | – |
| My-K(FI)PSQSSSEA (Myristoyl-K(fluorescein)PSQSSSEA) [CR1171] | more dispersely localized | internalization | – | – | – | – | – | – |
| My-PSQSSSK(4-Br-ben)A (Myristoyl-PSQSSSK(Benzoyl(4-Br))A) [CR1162] | – | – | almost no or little effect | almost no or little effect | – | – | – | – |
| My-PSQSK(ben)SK(ben)A (Myristoyl-PSQSK(Bz)SK(Bz)A) [CR1164] | – | – | almost no or little effect | almost no or little effect | no effect | no effect | – | – |
| My-K(FI)PSQSK(4-Br-ben)SK(4-Br-ben)A (Myristoyl-K(fluorescein)PSQSK(Benzoyl(4-Br))SK(Benzoyl(4-Br))A) [CR1173] | localized on the membrane | internalization | – | – | – | – | – | – |
| My-PSQSK(4-Br-ben)SEA (Myristoyl-PSQSK(Benzoyl(4-Br))SEA) [CR1170] | – | – | – | – | no effect | no effect | – | – |
